Assay results from PubChem BioAssay AID1963836 (Molecular Pharmacology Branch, DTP, NCI, 2024).
pIC50: −log10 of the molar value.

Tested on: 857933-349-R-J2-PDC complex spheroid viability
Test: Anticancer human tumor 857933-349-R-J2-PDC patient-derived colon adenocarcinoma cell line growth inhibition [POLQ]
Conditions: for pIC50: curve of first compound; for viability, T/C: stronger effect = lower value
Outline: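 Complex spheroid viability model combining PDC tumour cells with endothelial (HUVEC) and MSC stromal cells. Novobiocin, ART-558 or RP6685 were tested singly and in combination with standard and investigational anticancer drugs. Each was titrated in half-log steps from near clinical Cmax, or from 10 microM where Cmax was unknown.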

[1] = second compound 0.0316 µM, first compound 0.0316 µM
[2] = second compound 0.0316 µM, first compound 0.1 µM
[3] = second compound 0.0316 µM, first compound 0.316 µM
[4] = second compound 0.0316 µM, first compound 1 µM
[5] = second compound 0.0316 µM, first compound 3.16 µM
[6] = second compound 0.0316 µM, first compound 10 µM
[7] = second compound 0.1 µM, first compound 0.0316 µM
[8] = second compound 0.1 µM, first compound 0.1 µM
[9] = second compound 0.1 µM, first compound 0.316 µM
[10] = second compound 0.1 µM, first compound 1 µM
[11] = second compound 0.1 µM, first compound 3.16 µM
[12] = second compound 0.1 µM, first compound 10 µM
[13] = second compound 0.316 µM, first compound 0.0316 µM
[14] = second compound 0.316 µM, first compound 0.1 µM
[15] = second compound 0.316 µM, first compound 0.316 µM
[16] = second compound 0.316 µM, first compound 1 µM
[17] = second compound 0.316 µM, first compound 3.16 µM
[18] = second compound 0.316 µM, first compound 10 µM
[19] = second compound 1 µM, first compound 0.0316 µM
[20] = second compound 1 µM, first compound 0.1 µM
[21] = second compound 1 µM, first compound 0.316 µM
[22] = second compound 1 µM, first compound 1 µM
[23] = second compound 1 µM, first compound 3.16 µM
[24] = second compound 1 µM, first compound 10 µM
[25] = second compound 3.16 µM, first compound 0.0316 µM
[26] = second compound 3.16 µM, first compound 0.1 µM
[27] = second compound 3.16 µM, first compound 0.316 µM
[28] = second compound 3.16 µM, first compound 1 µM
[29] = second compound 3.16 µM, first compound 3.16 µM
[30] = second compound 3.16 µM, first compound 10 µM
[31] = second compound 10 µM, first compound 0.0316 µM
[32] = second compound 10 µM, first compound 0.1 µM
[33] = second compound 10 µM, first compound 0.316 µM
[34] = second compound 10 µM, first compound 1 µM
[35] = second compound 10 µM, first compound 3.16 µM
[36] = second compound 10 µM, first compound 10 µM
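Further: spheroids exposed to compounds for seven days before readout.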

**Q.** With `C=CC(=O)N1CCN(c2nc(=O)n(-c3c(C)ccnc3C(C)C)c3nc(-c4c(O)cccc4F)c(F)cc23)C(C)C1` (stereo unspecified) + COC1C(OC(N)=O)C(O)C(Oc2ccc3c(O)c(NC(=O)c4ccc(O)c(CC=C(C)C)c4)c(=O)oc3c2C)OC1(C)C as the compound, how does the pIC50 (second compound 0.0316 µM) read?
**A.** < 5.00

**Q.** What about the pIC50 (second compound 0.1 µM) of the same compound?
**A.** < 5.00

**Q.** And the pIC50 (second compound 0.316 µM)?
**A.** < 5.00

**Q.** And the pIC50 (second compound 1 µM)?
**A.** < 5.00

**Q.** And the pIC50 (second compound 3.16 µM)?
**A.** < 5.00

**Q.** What about the pIC50 (second compound 10 µM) of the same compound?
**A.** < 5.00

**Q.** And the viability, T/C [1]?
**A.** 105%

**Q.** What about the viability, T/C [2] of the same compound?
**A.** 104%

**Q.** And the viability, T/C [3]?
**A.** 103%

**Q.** What about the viability, T/C [4] of the same compound?
**A.** 107%

**Q.** And the viability, T/C [5]?
**A.** 88.5%

**Q.** What about the viability, T/C [6] of the same compound?
**A.** 102%

**Q.** What about the viability, T/C [7] of the same compound?
**A.** 94.4%

**Q.** What about the viability, T/C [8] of the same compound?
**A.** 88.7%

**Q.** What about the viability, T/C [9] of the same compound?
**A.** 79.5%

**Q.** And the viability, T/C [10]?
**A.** 110%

**Q.** And the viability, T/C [11]?
**A.** 104%

**Q.** What about the viability, T/C [12] of the same compound?
**A.** 77%

**Q.** And the viability, T/C [13]?
**A.** 96.1%

**Q.** What about the viability, T/C [14] of the same compound?
**A.** 110%

**Q.** What about the viability, T/C [15] of the same compound?
**A.** 102%

**Q.** What about the viability, T/C [16] of the same compound?
**A.** 98.2%

**Q.** And the viability, T/C [17]?
**A.** 100%

**Q.** And the viability, T/C [18]?
**A.** 74.9%

**Q.** What about the viability, T/C [19] of the same compound?
**A.** 101%

**Q.** And the viability, T/C [20]?
**A.** 108%

**Q.** And the viability, T/C [21]?
**A.** 81.3%

**Q.** And the viability, T/C [22]?
**A.** 109%

**Q.** And the viability, T/C [23]?
**A.** 99.2%

**Q.** And the viability, T/C [24]?
**A.** 93.3%

**Q.** What about the viability, T/C [25] of the same compound?
**A.** 98.1%

**Q.** And the viability, T/C [26]?
**A.** 116%

**Q.** And the viability, T/C [27]?
**A.** 126%

**Q.** And the viability, T/C [28]?
**A.** 99.3%

**Q.** What about the viability, T/C [29] of the same compound?
**A.** 111%

**Q.** And the viability, T/C [30]?
**A.** 71.4%

**Q.** And the viability, T/C [31]?
**A.** 104%

**Q.** And the viability, T/C [32]?
**A.** 73%

**Q.** And the viability, T/C [33]?
**A.** 118%

**Q.** And the viability, T/C [34]?
**A.** 97.4%

**Q.** What about the viability, T/C [35] of the same compound?
**A.** 82.2%

**Q.** And the viability, T/C [36]?
**A.** 99.8%

**Q.** With `CC1COCCN1c1cc(-c2ccnn2C)c2ccnc(-c3ccn[nH]3)c2n1` (stereo unspecified) + COC1C(OC(N)=O)C(O)C(Oc2ccc3c(O)c(NC(=O)c4ccc(O)c(CC=C(C)C)c4)c(=O)oc3c2C)OC1(C)C as the compound, how does the pIC50 (second compound 0.0316 µM) read?
**A.** 6.68

**Q.** And the pIC50 (second compound 0.1 µM)?
**A.** 6.55

**Q.** What about the pIC50 (second compound 0.316 µM) of the same compound?
**A.** 6.80

**Q.** What about the pIC50 (second compound 1 µM) of the same compound?
**A.** 6.59

**Q.** What about the pIC50 (second compound 3.16 µM) of the same compound?
**A.** 6.77

**Q.** And the pIC50 (second compound 10 µM)?
**A.** 6.51

**Q.** What about the viability, T/C [1] of the same compound?
**A.** 89.2%

**Q.** And the viability, T/C [2]?
**A.** 66.2%

**Q.** What about the viability, T/C [3] of the same compound?
**A.** 40.3%

**Q.** And the viability, T/C [4]?
**A.** 35.8%

**Q.** What about the viability, T/C [5] of the same compound?
**A.** 39.2%

**Q.** And the viability, T/C [6]?
**A.** 48.6%

**Q.** What about the viability, T/C [7] of the same compound?
**A.** 80.3%

**Q.** What about the viability, T/C [8] of the same compound?
**A.** 77.6%

**Q.** What about the viability, T/C [9] of the same compound?
**A.** 47.2%

**Q.** And the viability, T/C [10]?
**A.** 30.7%

**Q.** What about the viability, T/C [11] of the same compound?
**A.** 41.6%

**Q.** What about the viability, T/C [12] of the same compound?
**A.** 52.8%

**Q.** And the viability, T/C [13]?
**A.** 71.9%

**Q.** And the viability, T/C [14]?
**A.** 55.7%

**Q.** What about the viability, T/C [15] of the same compound?
**A.** 41.2%

**Q.** What about the viability, T/C [16] of the same compound?
**A.** 37.1%

**Q.** What about the viability, T/C [17] of the same compound?
**A.** 34.2%

**Q.** What about the viability, T/C [18] of the same compound?
**A.** 51.7%

**Q.** What about the viability, T/C [19] of the same compound?
**A.** 58.1%

**Q.** What about the viability, T/C [20] of the same compound?
**A.** 73.3%

**Q.** What about the viability, T/C [21] of the same compound?
**A.** 46.4%

**Q.** And the viability, T/C [22]?
**A.** 33.6%

**Q.** What about the viability, T/C [23] of the same compound?
**A.** 56.2%

**Q.** What about the viability, T/C [24] of the same compound?
**A.** 50%

**Q.** What about the viability, T/C [25] of the same compound?
**A.** 76.4%

**Q.** What about the viability, T/C [26] of the same compound?
**A.** 57.5%

**Q.** What about the viability, T/C [27] of the same compound?
**A.** 40.6%

**Q.** And the viability, T/C [28]?
**A.** 37%

**Q.** And the viability, T/C [29]?
**A.** 38%

**Q.** What about the viability, T/C [30] of the same compound?
**A.** 48.7%

**Q.** What about the viability, T/C [31] of the same compound?
**A.** 65.2%

**Q.** And the viability, T/C [32]?
**A.** 63.2%

**Q.** And the viability, T/C [33]?
**A.** 50.1%

**Q.** And the viability, T/C [34]?
**A.** 39.2%

**Q.** What about the viability, T/C [35] of the same compound?
**A.** 49.1%

**Q.** And the viability, T/C [36]?
**A.** 50.3%

**Q.** With `CC1COCCN1c1cc(C2(S(C)(=N)=O)CC2)nc(-c2ccnc3[nH]ccc23)n1` (stereo unspecified) + COC1C(OC(N)=O)C(O)C(Oc2ccc3c(O)c(NC(=O)c4ccc(O)c(CC=C(C)C)c4)c(=O)oc3c2C)OC1(C)C as the compound, how does the pIC50 (second compound 0.0316 µM) read?
**A.** 5.32

**Q.** And the pIC50 (second compound 0.1 µM)?
**A.** 5.34

**Q.** What about the pIC50 (second compound 0.316 µM) of the same compound?
**A.** 5.40

**Q.** And the pIC50 (second compound 1 µM)?
**A.** 5.35

**Q.** And the pIC50 (second compound 3.16 µM)?
**A.** 5.32

**Q.** What about the pIC50 (second compound 10 µM) of the same compound?
**A.** 5.31

**Q.** What about the viability, T/C [1] of the same compound?
**A.** 105%

**Q.** And the viability, T/C [2]?
**A.** 107%

**Q.** And the viability, T/C [3]?
**A.** 80.2%

**Q.** What about the viability, T/C [4] of the same compound?
**A.** 77.6%

**Q.** What about the viability, T/C [5] of the same compound?
**A.** 70.1%

**Q.** And the viability, T/C [6]?
**A.** 27.7%

**Q.** What about the viability, T/C [7] of the same compound?
**A.** 85.6%

**Q.** What about the viability, T/C [8] of the same compound?
**A.** 84.5%

**Q.** And the viability, T/C [9]?
**A.** 73.7%

**Q.** What about the viability, T/C [10] of the same compound?
**A.** 73.3%

**Q.** What about the viability, T/C [11] of the same compound?
**A.** 57.2%

**Q.** And the viability, T/C [12]?
**A.** 34.2%

**Q.** What about the viability, T/C [13] of the same compound?
**A.** 84.9%

**Q.** And the viability, T/C [14]?
**A.** 86.1%

**Q.** And the viability, T/C [15]?
**A.** 74.7%

**Q.** What about the viability, T/C [16] of the same compound?
**A.** 77.8%

**Q.** And the viability, T/C [17]?
**A.** 53.6%

**Q.** And the viability, T/C [18]?
**A.** 33%

**Q.** What about the viability, T/C [19] of the same compound?
**A.** 101%

**Q.** What about the viability, T/C [20] of the same compound?
**A.** 98.7%

**Q.** What about the viability, T/C [21] of the same compound?
**A.** 79.1%

**Q.** What about the viability, T/C [22] of the same compound?
**A.** 72.1%

**Q.** And the viability, T/C [23]?
**A.** 55.2%

**Q.** What about the viability, T/C [24] of the same compound?
**A.** 37.9%

**Q.** What about the viability, T/C [25] of the same compound?
**A.** 94.6%

**Q.** What about the viability, T/C [26] of the same compound?
**A.** 89.5%

**Q.** What about the viability, T/C [27] of the same compound?
**A.** 97%

**Q.** And the viability, T/C [28]?
**A.** 86.4%

**Q.** And the viability, T/C [29]?
**A.** 57.2%

**Q.** What about the viability, T/C [30] of the same compound?
**A.** 37.2%

**Q.** And the viability, T/C [31]?
**A.** 118%

**Q.** And the viability, T/C [32]?
**A.** 79.4%

**Q.** And the viability, T/C [33]?
**A.** 85.7%

**Q.** And the viability, T/C [34]?
**A.** 77.2%

**Q.** And the viability, T/C [35]?
**A.** 55.7%

**Q.** What about the viability, T/C [36] of the same compound?
**A.** 38.6%
